From the supplement of paper PMC8149375

Columns and labels:
Conditions in all cases: treatment: drug alone; 5 days
[1] = tested on: 769-P; assay: GI50, drug alone; higher = less potent
Method: (§1)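 Primary HTS: 8 RCC cell lines treated with 8 doses (up to 10 uM) of each library drug alone for 5 days; viability read by CellTiter-Glo and normalised to DMSO. GI50 was fitted with XLfit (4-parameter), AUC is the area under the dose-response curve, and minimum viability is the lowest fraction of DMSO viability across doses.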

[2] = tested on: ACHN; assay: GI50, drug alone; higher = less potent
Method: as §1

[3] = tested on: CAKI-1; assay: GI50, drug alone; higher = less potent
Method: as §1

[4] = tested on: A498; assay: GI50, drug alone; higher = less potent
Method: as §1

[5] = tested on: 786-O; assay: GI50, drug alone; higher = less potent
Method: as §1

[6] = tested on: TK-10; assay: GI50, drug alone; higher = less potent
Method: as §1

[7] = tested on: UO-31; assay: GI50, drug alone; higher = less potent
Method: as §1

[8] = tested on: SN12C; assay: GI50, drug alone; higher = less potent
Method: as §1

[9] = tested on: 769-P; assay: minimum viability across doses, drug alone, relative to DMSO (fraction); higher = less growth inhibition
Method: as §1

[10] = tested on: ACHN; assay: as above
Method: as §1

[11] = tested on: CAKI-1; assay: as above
Method: as §1

[12] = tested on: A498; assay: as above
Method: as §1

[13] = tested on: 786-O; assay: as above
Method: as §1

[14] = tested on: TK-10; assay: as above
Method: as §1

[15] = tested on: UO-31; assay: as above
Method: as §1

[16] = tested on: SN12C; assay: as above
Method: as §1

[17] = tested on: 769-P; assay: AUC of dose-response viability curve, drug alone (arbitrary (AUC of normalised viability)); higher = less growth inhibition
Method: as §1

[18] = tested on: ACHN; assay: as above
Method: as §1

[19] = tested on: CAKI-1; assay: as above
Method: as §1

[20] = tested on: A498; assay: as above
Method: as §1

[21] = tested on: 786-O; assay: as above
Method: as §1

[22] = tested on: TK-10; assay: as above
Method: as §1

[23] = tested on: UO-31; assay: as above
Method: as §1

[24] = tested on: SN12C; assay: as above
Method: as §1

| SMILES | GI50, drug alone [1] [µM] | GI50, drug alone [2] [µM] | GI50, drug alone [3] [µM] | GI50, drug alone [4] [µM] | GI50, drug alone [5] [µM] | GI50, drug alone [6] [µM] | GI50, drug alone [7] [µM] | GI50, drug alone [8] [µM] | minimum viability across doses [9] | minimum viability across doses [10] | minimum viability across doses [11] | minimum viability across doses [12] | minimum viability across doses [13] | minimum viability across doses [14] | minimum viability across doses [15] | minimum viability across doses [16] | AUC of dose-response viability curve [17] | AUC of dose-response viability curve [18] | AUC of dose-response viability curve [19] | AUC of dose-response viability curve [20] | AUC of dose-response viability curve [21] | AUC of dose-response viability curve [22] | AUC of dose-response viability curve [23] | AUC of dose-response viability curve [24] |
| --- | --- | --- | --- | --- | --- | --- | --- | --- | --- | --- | --- | --- | --- | --- | --- | --- | --- | --- | --- | --- | --- | --- | --- | --- |
| C[C@@H]1CCN(C(=O)CC#N)C[C@@H]1N(C)c1ncnc2[nH]ccc12 | > 10 | > 10 | > 10 | > 10 | > 10 | > 10 | > 10 | > 10 | 0.988 | 0.893 | 0.98 | 0.909 | 0.804 | 0.806 | 0.876 | 0.935 | 3.63 | 3.3 | 3.66 | 3.8 | 3.54 | 3.14 | 4.6 | 3.63 |
| COc1cc(Nc2c(C#N)cnc3cc(OCCCN4CCN(C)CC4)c(OC)cc23)c(Cl)cc1Cl [Bosutinib (SKI-606)] | 1.65 | 0.429 | 0.849 | 5.05 | 2.51 | 1.21 | > 10 | 1.14 | 0.111 | 0.0885 | 0.0478 | 0.233 | 0.0159 | 0.0431 | 0.00817 | 0.126 | 2.68 | 2.16 | 2.38 | 3.08 | 2.94 | 2.61 | 2.35 | 2.34 |
| O=C1NC(=O)/C(=C/c2ccc(-c3ccc(F)cc3O)o2)S1 | > 10 | > 10 | > 10 | > 10 | > 10 | > 10 | 4.73 | > 10 | 0.905 | 0.872 | 0.955 | 1.21 | 0.694 | 0.853 | 0.244 | 0.917 | 3.41 | 3.49 | 3.51 | 4.49 | 2.68 | 3.25 | 4.02 | 3.48 |
| CCO.N#CC(=C(/N)Sc1ccccc1N)/C(C#N)=C(\N)Sc1ccccc1N [U0126-EtOH] | > 10 | > 10 | > 10 | > 10 | > 10 | > 10 | > 10 | > 10 | 0.806 | 0.646 | 0.564 | 0.913 | 0.576 | 0.656 | 0.943 | 0.901 | 3.3 | 3.17 | 3.35 | 3.94 | 2.86 | 2.95 | 4 | 3.49 |
| OCCn1cc(-c2cnc3nnn(Cc4ccc5ncccc5c4)c3n2)cn1 | > 10 | > 10 | > 10 | > 10 | > 10 | > 10 | > 10 | > 10 | 0.883 | 0.542 | 0.615 | 0.984 | 1.01 | 0.804 | 1.15 | 0.879 | 3.3 | 2.48 | 2.32 | 4.04 | 4 | 3.18 | 4.37 | 3.37 |
| Cc1cc(Nc2nc(N[C@@H](C)c3ccc(F)cc3)c(C#N)cc2F)n[nH]1 [AZ 960] | 1.23 | 1.07 | 0.628 | 3.3 | 0.259 | 1.84 | 0.789 | 1.68 | 0.0819 | 0.129 | 0.0231 | 0.391 | 0.00178 | 0.133 | 0.00541 | 0.252 | 2.51 | 2.48 | 2.15 | 2.86 | 1.57 | 2.44 | 2.52 | 2.5 |
| C=CC(=O)Nc1cc2c(Nc3ccc(F)c(Cl)c3)ncnc2cc1OCCCN1CCOCC1 [CI-1033 (Canertinib)] | 1 | 0.532 | 5.53 | 8.55 | > 10 | 0.626 | > 10 | 5.22 | 0.344 | 0.158 | 0.382 | 0.141 | 0.487 | 0.156 | 0.557 | 0.104 | 2.24 | 2.09 | 2.8 | 3.62 | 2.52 | 2.11 | 3.48 | 2.52 |
| Cc1cnc(NC(=O)Nc2cc(Br)c(C)cc2OC[C@@H]2CNCCO2)cn1 | > 10 | 0.161 | 1.39 | 3.57 | 0.342 | 0.58 | 0.745 | 4.66 | 0.0604 | 0.0243 | 0.145 | 0.0991 | 0.00129 | 0.156 | 0.00586 | 0.175 | 2.27 | 1.82 | 2.83 | 3.76 | 2 | 2.25 | 3.67 | 3.07 |
| CC[C@H](CO)Nc1nc(NCc2ccccc2)c2ncn(C(C)C)c2n1 [Roscovitine (Seliciclib, CYC202)] | > 10 | 7.52 | > 10 | > 10 | 4.97 | > 10 | > 10 | > 10 | 0.848 | 0.36 | 0.763 | 1.03 | 0.208 | 0.655 | 0.544 | 0.769 | 3.28 | 3.25 | 3.27 | 3.91 | 2.76 | 3.17 | 3.47 | 3.57 |
| C=CC(=O)Nc1cccc(Oc2nc(Nc3ccc(N4CCN(C)CC4)cc3OC)ncc2Cl)c1 [WZ4002] | > 10 | 0.845 | 3.38 | > 10 | > 10 | 1.19 | 8.03 | 4.51 | 0.576 | 0.0645 | 0.385 | 0.796 | 0.547 | 0.0574 | 0.0165 | 0.151 | 2.97 | 2.38 | 2.96 | 4.01 | 2.59 | 2.42 | 3.99 | 2.87 |
| COc1cc2ncnc(Nc3cccc(Br)c3)c2cc1OC.Cl | 1.49 | 0.582 | 8.68 | > 10 | 6.69 | 1.36 | 6.95 | > 10 | 0.357 | 0.268 | 0.378 | 0.923 | 0.00889 | 0.181 | 0.0153 | 0.825 | 2.36 | 2.07 | 2.92 | 4.63 | 2.81 | 2.36 | 4.18 | 3.17 |
| C[C@@H](Oc1cc(-c2cnn(C3CCNCC3)c2)cnc1N)c1c(Cl)ccc(F)c1Cl | 6.06 | 4.03 | 4.01 | 9.41 | 1.84 | 5.34 | 4.17 | 2.43 | 0.117 | 0.225 | 0.0408 | 0.346 | 0.0211 | 0.239 | 0.169 | 0.154 | 3.14 | 3.07 | 3.06 | 3.48 | 2.67 | 3.23 | 3.1 | 2.68 |
| O=C(Cc1ccc(-c2ccc(OCCN3CCOCC3)cc2)cn1)NCc1ccccc1 [KX2-391] | 0.0606 | 0.0755 | 0.0797 | 0.0893 | 0.0268 | 0.193 | 0.0852 | 0.115 | 0.0797 | 0.113 | 0.142 | 0.177 | 0.00471 | 0.27 | 0.00967 | 0.102 | 1.43 | 1.66 | 1.67 | 1.84 | 0.9 | 1.95 | 1.48 | 1.72 |
| CC(C)CC(=O)Nc1n[nH]c2c1CN(C(=O)C1CCN(C)CC1)C2(C)C | 4.34 | 0.276 | 1.77 | 1.48 | 0.12 | 3.08 | 1.06 | 0.262 | 0.189 | 0.0324 | 0.0863 | 0.00722 | 0.0023 | 0.174 | 0.00653 | 0.0129 | 3.01 | 1.92 | 2.75 | 2.94 | 1.4 | 2.7 | 3 | 1.9 |
| O=C(NC1CCNCC1)c1n[nH]cc1NC(=O)c1c(Cl)cccc1Cl [AT7519] | 1.91 | 0.946 | 0.9 | 0.455 | 0.375 | 1.04 | 0.415 | 0.431 | 0.0237 | 0.00881 | 0.0613 | 0.00986 | 0.00447 | 0.182 | 0.00638 | 0.0108 | 2.78 | 2.35 | 2.23 | 2.45 | 2.23 | 2.32 | 3.04 | 2.14 |
| COc1ccc(C2=NC(c3ccc(Cl)cc3)C(c3ccc(Cl)cc3)N2C(=O)N2CCNC(=O)C2)c(OC(C)C)c1 (stereo unspecified) [Nutlin-3] | > 10 | 5.64 | 8.04 | > 10 | > 10 | > 10 | > 10 | > 10 | 0.677 | 0.278 | 0.383 | 0.914 | 0.756 | 0.805 | 0.99 | 0.846 | 3.42 | 2.82 | 3.34 | 3.9 | 3.29 | 2.99 | 4.29 | 3.31 |
| Cl.Cl.Clc1ccc(Nc2nnc(Cc3ccncc3)c3ccccc23)cc1 [Vatalanib dihydrochloride (PTK787)] | > 10 | > 10 | > 10 | > 10 | > 10 | > 10 | > 10 | > 10 | 1.01 | 0.587 | 0.807 | 0.933 | 0.692 | 0.887 | 1.11 | 0.901 | 3.69 | 2.59 | 3.48 | 4.65 | 3.3 | 3.41 | 4.41 | 3.4 |
| COC(=O)Nc1ccc(-c2nc(N3CCOCC3)c3cnn(C4CCN(Cc5cccnc5)CC4)c3n2)cc1 [WYE-687] | 1.59 | 0.551 | 0.577 | 4.61 | 1.48 | 0.501 | 0.581 | 0.996 | 0.184 | 0.0636 | 0.075 | 0.351 | 0.441 | 0.0981 | 0.00593 | 0.141 | 2.67 | 2.34 | 2.23 | 3.76 | 2.92 | 2.1 | 2.83 | 2.45 |
| Nc1nc(N)c2nc(-c3cccc(O)c3)c(-c3cccc(O)c3)nc2n1 [TG100-115] | > 10 | > 10 | > 10 | > 10 | > 10 | > 10 | > 10 | > 10 | 0.912 | 0.685 | 0.567 | 0.862 | 0.873 | 0.871 | 1.2 | 0.804 | 3.5 | 3.33 | 2.42 | 4.15 | 3.66 | 3.25 | 5.18 | 3.31 |
